Measured values: patent US20190105367A1, “ANTIMICROBIAL 4-OXOQUINOLIZINES” (Emergent Product Development Gaithersburg Inc., priority 2011, published 2019)
Converted amounts (≈) assume the structure as drawn. Read-outs that look alike come from different tables or passages of the source.

Assays:
A. baumannii ATCC 19606 [1] = test: MIC without and with sub-inhibitory polymyxin B (Example 4); type: cell-based, Acinetobacter baumannii; conditions: for MIC without PB/MIC + PB: A. baumannii ATCC 19606; for MIC: Acinetobacter baumannii
A. baumannii J2 [2] = test: Preliminary MBC without and with sub-inhibitory polymyxin B (Example 4); type: cell-based, Acinetobacter baumannii; conditions: Acinetobacter baumannii, J2, read-out: MBC +[…] PB, A. baumannii J2; +[…] polymyxin B; preliminary MBC; 1st experiment
[3] = system: Acinetobacter sp. (H064200250); test: as above; type: cell-based; conditions: Acinetobacter
How it was run: (§1)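 Read-out: the minimum concentration at which colonies were reduced by ca. 90% relative to positive control, usually seen as isolated colonies or a clear plate. Plates had been kept 18-20 hours at 37° C beforehand.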

A. baumannii ATCC 19606 [4] = test: as above; type: cell-based, Acinetobacter baumannii; conditions: Acinetobacter baumannii
A. baumannii NCTC 13301 [5] = test: MIC without and with sub-inhibitory polymyxin B (Example 4); type: cell-based, Acinetobacter baumannii; conditions: A. baumannii NCTC 13301; +[…] PB; 2nd experiment
A. baumannii A401 [6] = test: as above; type: cell-based, Acinetobacter baumannii; conditions: for MIC: Acinetobacter baumannii
[7] = system: Acinetobacter sp. (H064200250); test: as above; type: cell-based; conditions: for MIC: Acinetobacter
A. baumannii NCTC 13301 [8] = test: as above; type: cell-based, Acinetobacter baumannii
A. baumannii A387 [9] = test: Preliminary MBC without and with sub-inhibitory polymyxin B (Example 4); type: cell-based, Acinetobacter baumannii; conditions: Acinetobacter baumannii, A387, read-out: MBC +0.06 μg/ml PB, A. baumannii A387, +0.06 μg/ml polymyxin B, 1st experiment
A. baumannii J2 [10] = test: MIC without and with sub-inhibitory polymyxin B (Example 4); type: cell-based, Acinetobacter baumannii; conditions: for MIC without PB/MIC + PB: A. baumannii J2
A. baumannii A14 [11] = test: as above; type: cell-based, Acinetobacter baumannii; conditions: 1st experiment
A. baumannii A489 [12] = test: as above; type: cell-based, Acinetobacter baumannii; conditions: for MIC without PB/MIC + PB: A. baumannii A489; for MIC: Acinetobacter baumannii
A. baumannii A390 = test: Preliminary MBC without and with sub-inhibitory polymyxin B (Example 4); type: cell-based, Acinetobacter baumannii; conditions: Acinetobacter baumannii, A390, A. baumannii A390, +0.06 μg/ml PB, 2nd experiment, read-out: MBC
How it was run: as §1

A. baumannii NCTC 13301 [13] = test: as above; type: cell-based, Acinetobacter baumannii; conditions: Acinetobacter baumannii, NCTC13301, read-out: MBC +[…] PB
How it was run: as §1

A. baumannii A473 [14] = test: as above; type: cell-based, Acinetobacter baumannii; conditions: Acinetobacter baumannii, A473, A. baumannii A473, +0.06 μg/ml PB, 2nd experiment, read-out: MBC
How it was run: as §1

A. baumannii A14 [15] = test: as above; type: cell-based, Acinetobacter baumannii; conditions: 2nd experiment
How it was run: as §1

A. baumannii A329 [16] = test: MIC without and with sub-inhibitory polymyxin B (Example 4); type: cell-based, Acinetobacter baumannii; conditions: A. baumannii A329; +0.06 μg/ml PB; 2nd experiment
A. baumannii A401 [17] = test: Preliminary MBC without and with sub-inhibitory polymyxin B (Example 4); type: cell-based, Acinetobacter baumannii; conditions: Acinetobacter baumannii
A. baumannii A473 [18] = test: MIC without and with sub-inhibitory polymyxin B (Example 4); type: cell-based, Acinetobacter baumannii; conditions: +0.06 μg/ml PB, 2nd experiment
A. baumannii A387 [19] = test: as above; type: cell-based, Acinetobacter baumannii
A. baumannii A489 [20] = test: Preliminary MBC without and with sub-inhibitory polymyxin B (Example 4); type: cell-based, Acinetobacter baumannii; conditions: Acinetobacter baumannii, preliminary MBC
A. baumannii A329 [21] = test: as above; type: cell-based, Acinetobacter baumannii; conditions: Acinetobacter baumannii, A329, A. baumannii A329, +0.06 μg/ml PB, 2nd experiment, read-out: MBC
A. baumannii A14 [22] = test: as above; type: cell-based, Acinetobacter baumannii; conditions: A. baumannii A14; +0.06 μg/ml polymyxin B; preliminary MBC; 1st experiment
[23] = system: strains of A. baumannii and one strain of Acinetobacter sp.; test: MIC with sub-inhibitory concentrations (0.25x MIC) of polymyxin B, panel of Acinetobacter strains (Example 4); type: cell-based

Cc1c(-c2ccc(CN)cc2)ccn2c(=O)c(C(=O)O)cc(C3CC3)c12 [Compound 5, 8-(4-aminomethyl-phenyl)-1-cyclopropyl-9-methyl-4-oxo-quinolizine-3-carboxylic acid]
MIC without PB/MIC + PB (A. baumannii ATCC 19606 [1]; +0.06 μg/ml PB, 2nd experiment): 8 | MIC without PB/MIC + PB (A. baumannii ATCC 19606 [1]; ratio, PB 0.06 μg/ml, 1st experiment): 4 | MIC (A. baumannii ATCC 19606 [1]; ATCC19606, A. baumannii ATCC 19606, +0.06 μg/ml PB, 2nd experiment, read-out: MIC): 0.06 µg/mL (≈ 0.172 µM) | MIC (A. baumannii ATCC 19606 [1]; ATCC19606, read-out: MIC +0.06 μg/ml PB, A. baumannii ATCC 19606, +0.06 μg/ml polymyxin B, 1st experiment): 0.06 µg/mL | MBC (A. baumannii J2 [2]): 0.5 µg/mL (≈ 1.44 µM) | MBC [3]: 4 µg/mL (≈ 11.5 µM) | MBC ([3]; read-out: MBC +[…] PB, Acinetobacter spp. H064200250, +[…] polymyxin B, preliminary MBC, 1st experiment): 1 µg/mL (≈ 2.87 µM) | MBC (A. baumannii ATCC 19606 [4]; ATCC19606, A. baumannii ATCC 19606, +0.06 μg/ml PB, 2nd experiment, read-out: MBC): 0.06 µg/mL (≈ 0.172 µM) | MBC (A. baumannii ATCC 19606 [4]; ATCC19606, read-out: MBC +0.06 μg/ml PB, A. baumannii ATCC 19606, +0.06 μg/ml polymyxin B, 1st experiment): 0.06 µg/mL | MIC without PB/MIC + PB (A. baumannii NCTC 13301 [5]): 8 | MIC without PB/MIC + PB (A. baumannii A401 [6]; A baumannii A 401, ratio, PB 0.06 μg/ml, 1st experiment): 8 | MIC (A. baumannii A401 [6]; A401, A baumannii A 401, +0.06 μg/ml PB, 2nd experiment, read-out: MIC): 4 µg/mL (≈ 11.5 µM) | MIC (A. baumannii A401 [6]; A401, read-out: MIC +0.06 μg/ml PB, A baumannii A 401, +0.06 μg/ml polymyxin B, 1st experiment): 2 µg/mL | MIC [7]: 4 µg/mL (≈ 11.5 µM) | MIC without PB/MIC + PB ([7]; Acinetobacter spp. H064200250 (OXA51), +[…] PB, 2nd experiment): 4 | MIC without PB/MIC + PB ([7]; Acinetobacter spp. H064200250, ratio, PB […], 1st experiment): 16 | MIC ([7]; read-out: MIC +[…] PB, Acinetobacter spp. H064200250, +[…] polymyxin B, 1st experiment): 1 µg/mL (≈ 2.87 µM) | MIC without PB/MIC + PB (A. baumannii NCTC 13301 [8]; A. baumannii NCTC 13301, ratio, PB […], 1st experiment): 16 | MIC (A. baumannii NCTC 13301 [8]; Acinetobacter baumannii, NCTC13301, read-out: MIC +[…] PB): 1 µg/mL (≈ 2.87 µM) | MBC (A. baumannii A387 [9]): 0.25 µg/mL | MIC without PB/MIC + PB (A. baumannii J2 [10]; +[…] PB, 2nd experiment): 8 | MIC without PB/MIC + PB (A. baumannii J2 [10]; ratio, PB […], 1st experiment): 16 | MIC (A. baumannii J2 [10]; Acinetobacter baumannii, J2, read-out: MIC +[…] PB, A. baumannii J2, +[…] polymyxin B, 1st experiment): 0.5 µg/mL (≈ 1.44 µM) | MIC +0.06 μg/ml PB (A. baumannii A14 [11]; +0.06 μg/ml polymyxin B): 4 µg/mL | MIC without PB/MIC + PB (A. baumannii A14 [11]; ratio, PB 0.06 μg/ml): 8 | MIC without PB/MIC + PB (A. baumannii A489 [12]; +[…] PB, 2nd experiment): 16 | MIC without PB/MIC + PB (A. baumannii A489 [12]; ratio, PB […], 1st experiment): 8 | MIC (A. baumannii A489 [12]; A489, A. baumannii A489, +[…] PB, 2nd experiment, read-out: MIC): 0.5 µg/mL (≈ 1.44 µM) | MIC (A. baumannii A489 [12]; A489, read-out: MIC +[…] PB, A. baumannii A489, +[…] polymyxin B, 1st experiment): 0.5 µg/mL (≈ 1.44 µM) | MBC (A. baumannii A390): 2 µg/mL (≈ 5.74 µM) | MBC (A. baumannii NCTC 13301 [13]): 1 µg/mL (≈ 2.87 µM) | MBC (A. baumannii A473 [14]): 1 µg/mL (≈ 2.87 µM) | MBC (A. baumannii A14 [15]; A. baumannii A14, +0.06 μg/ml PB): 4 µg/mL (≈ 11.5 µM) | MBC (A. baumannii A14 [15]; Acinetobacter baumannii, A14, A. baumannii A14, without PB, read-out: MBC): 16 µg/mL (≈ 45.9 µM) | MIC without PB/MIC + PB (A. baumannii A329 [16]): 1 | MBC (A. baumannii A401 [17]; A401, A baumannii A 401, +0.06 μg/ml PB, 2nd experiment, read-out: MBC): 4 µg/mL (≈ 11.5 µM) | MBC (A. baumannii A401 [17]; A401, read-out: MBC +0.06 μg/ml PB, A baumannii A 401, +0.06 μg/ml polymyxin B, 1st experiment): 2 µg/mL | MIC without PB/MIC + PB (A. baumannii A473 [18]; A. baumannii A473): 8 | MIC (A. baumannii A473 [18]; Acinetobacter baumannii, A473, A. baumannii A473, read-out: MIC): 1 µg/mL (≈ 2.87 µM) | MIC without PB/MIC + PB (A. baumannii A387 [19]; A. baumannii A387, +0.06 μg/ml PB, 2nd experiment): 4 | MIC +0.06 μg/ml PB (A. baumannii A387 [19]; A. baumannii A387, +0.06 μg/ml polymyxin B, 1st experiment): 0.25 µg/mL | MIC without PB/MIC + PB (A. baumannii A387 [19]; A. baumannii A387, ratio, PB 0.06 μg/ml, 1st experiment): 8 | MIC (A. baumannii A387 [19]; Acinetobacter baumannii, A387, A. baumannii A387, +0.06 μg/ml PB, 2nd experiment, read-out: MIC): 1 µg/mL (≈ 2.87 µM) | MBC (A. baumannii A489 [20]; A489, A. baumannii A489, +[…] PB, 2nd experiment, read-out: MBC): 0.5 µg/mL (≈ 1.44 µM) | MBC (A. baumannii A489 [20]; A489, read-out: MBC +[…] PB, A. baumannii A489, +[…] polymyxin B, 1st experiment): 1 µg/mL (≈ 2.87 µM) | MBC (A. baumannii A329 [21]): 8 µg/mL (≈ 23 µM) | MBC +0.06 μg/ml PB (A. baumannii A14 [22]): 8 µg/mL | Range ratios MIC without PB/MIC with PB Oct. 1, 2008 n = 8 ([23]; 1st experiment): 8-16 | MIC range with PB (0.25x MIC) Oct. 1, 2008 n = 8 ([23]; 1st experiment, […] polymyxin B, ATCC 19606, A329, A390 and A473 not taken): 0.25 to 4 µg/mL | Range ratios MIC without PB/MIC with PB Oct. 14, 2008 n = 11 ([23]; 2nd experiment): 4-32 | MIC range with PB (0.25x MIC) Oct. 14, 2008 n = 11 ([23]; 2nd experiment, 0.06 μg/ml polymyxin B, all strains except the ATCC strain): 0.25 to 8 µg/mL
